From ChEMBL document CHEMBL1201862, “PubChem BioAssay data set” (2004)
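Interpolation was linear, between the two tested concentrations surrounding the appropriate level; five concentrations were tested over 48 hours in 96-well plates. GI50: concentration for 50% inhibition of growth.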 Activity calls are given as the source filed them. Cut-off read from the data, not from the text of the source: active = GI50 up to about 1.1 µM and inactive = higher.

How the values were obtained:
Test in all cases: DTP human tumour cell line panel, 48 h
RXF 393 = tested on: RXF 393
COLO 205 = tested on: COLO 205
HCT-15 = tested on: HCT-15
K562 = tested on: K562
CAKI-1 = tested on: CAKI-1
RPMI-8226 = tested on: RPMI-8226
M14 = tested on: M14
UACC-257 = tested on: UACC-257
NCI-H522 = tested on: NCI-H522
HOP-62 = tested on: HOP-62
SK-MEL-5 = tested on: SK-MEL-5
MDA-MB-231 = tested on: MDA-MB-231
SN12C = tested on: SN12C
KM12 = tested on: KM12
SF-268 = tested on: SF-268
NCI-H226 = tested on: NCI-H226
EKVX = tested on: EKVX
TK-10 = tested on: TK-10
SK-MEL-28 = tested on: SK-MEL-28
BT-549 = tested on: BT-549

Compound	GI50 (RXF 393)	GI50 (COLO 205)	GI50 (HCT-15)	GI50 (K562)	GI50 (CAKI-1)	GI50 (RPMI-8226)	GI50 (M14)	GI50 (UACC-257)	GI50 (NCI-H522)	GI50 (HOP-62)	GI50 (SK-MEL-5)	GI50 (MDA-MB-231)	GI50 (SN12C)	GI50 (KM12)	GI50 (SF-268)	GI50 (NCI-H226)	GI50 (EKVX)	GI50 (TK-10)	GI50 (SK-MEL-28)	GI50 (BT-549)
Cc1cn2c(/C=N/NC(=N)N)c(-c3ccc(Cl)c([N+](=O)[O-])c3)nc2s1	0.59 µM (active)	0.661 µM (active)	1.7 µM	0.257 µM (active)	3.36 µM (inactive)	0.904 µM (active)	1.63 µM (inactive)	0.178 µM (active)	0.16 µM (active)	1.54 µM (inactive)	1.56 µM (inactive)	1.13 µM (inactive)	0.705 µM (active)	0.387 µM (active)	1.23 µM (inactive)	1.89 µM (inactive)	0.776 µM (active)	1.68 µM (inactive)	1.71 µM (inactive)	
Oc1ccc(-c2c3c(nc4c2CCc2ccc(Br)cc2-4)-c2cc(Br)ccc2CC3)cc1		17.2 µM (inactive)	18.9 µM		17.7 µM (inactive)	26.9 µM (inactive)	23.9 µM (inactive)	27 µM (inactive)	25.6 µM (inactive)	17.2 µM (inactive)	20.7 µM (inactive)	17.7 µM (inactive)	20 µM (inactive)	19.7 µM (inactive)	21.7 µM (inactive)	23.3 µM (inactive)	22 µM (inactive)	21.1 µM (inactive)	20.6 µM (inactive)	24 µM (inactive)
COc1ccc(-n2c(-c3ccccc3)cc(-c3cccs3)c2-c2cccs2)cc1	76.9 µM (inactive)	> 100 µM (inactive)	> 100 µM		> 100 µM (inactive)	> 100 µM (inactive)	> 100 µM (inactive)	> 100 µM (inactive)	> 100 µM (inactive)	> 100 µM (inactive)	> 100 µM (inactive)	10.1 µM (inactive)	> 100 µM (inactive)	> 100 µM (inactive)	> 100 µM (inactive)	> 100 µM (inactive)	> 100 µM (inactive)	> 100 µM (inactive)	> 100 µM (inactive)	
N#CC1C(=O)NC(=O)C(C#N)C1c1ccc(Cl)c(Cl)c1 (configuration not stated)	21 µM (inactive)	> 100 µM (inactive)	21.5 µM	28.8 µM (inactive)	22.4 µM (inactive)		23.4 µM (inactive)	35.9 µM (inactive)	15.7 µM (inactive)	20.4 µM (inactive)	20.9 µM (inactive)	< 0.01 µM (active)	< 0.01 µM (active)	33.7 µM (inactive)	34.8 µM (inactive)		> 100 µM (inactive)	35.3 µM (inactive)	30.6 µM (inactive)	33.3 µM (inactive)
CC(=O)C1(O)Cc2c(O)c3c(c(O)c2C(OC2CC(N)C(O)C(C)O2)C1)C(=O)c1ccccc1C3=O (configuration not stated)		0.0796 µM (active)	0.0277 µM	0.083 µM (active)	0.00836 µM (active)		0.0452 µM (active)	0.121 µM (active)	0.015 µM (active)	0.0141 µM (active)	0.0241 µM (active)	0.252 µM (active)	0.0207 µM (active)	0.0498 µM (active)	0.0215 µM (active)	0.0163 µM (active)	0.193 µM (active)	0.053 µM (active)		0.134 µM (active)
OC(C/C=N/N=C/CC(O)(C(F)(F)Cl)C(F)(F)Cl)(C(F)(F)Cl)C(F)(F)Cl	> 10 µM (inactive)	> 10 µM (inactive)	> 10 µM	> 10 µM (inactive)	> 10 µM (inactive)	> 10 µM (inactive)	> 10 µM (inactive)	> 10 µM (inactive)	> 10 µM (inactive)	> 10 µM (inactive)	> 10 µM (inactive)	> 10 µM (inactive)	> 10 µM (inactive)	> 10 µM (inactive)	> 10 µM (inactive)	> 10 µM (inactive)	> 10 µM (inactive)	> 10 µM (inactive)	> 10 µM (inactive)	
O=C1CCC2(c3ccc(Cl)cc3)Nc3ncncc3N12 (configuration not stated)			> 10 µM	> 10 µM (inactive)			> 10 µM (inactive)	> 10 µM (inactive)	> 10 µM (inactive)			0.001 µM (active)	> 10 µM (inactive)	> 10 µM (inactive)	> 10 µM (inactive)	> 10 µM (inactive)	> 10 µM (inactive)	> 10 µM (inactive)		> 10 µM (inactive)
NNC(=S)NCCNC(=S)NN		> 100 µM (inactive)			> 100 µM (inactive)	> 100 µM (inactive)	> 100 µM (inactive)	> 100 µM (inactive)	> 100 µM (inactive)	> 100 µM (inactive)	> 100 µM (inactive)	30.3 µM (inactive)	> 100 µM (inactive)	> 100 µM (inactive)	> 100 µM (inactive)		> 100 µM (inactive)		> 100 µM (inactive)	> 100 µM (inactive)
